{"source": "ChEMBL document CHEMBL4418486", "about": "“Heterocyclic compounds for the inhibition of pask” (2015)", "assay": "Half life in Sprague-Dawley rat at 10 mg/kg, po measured after 0.083 to 24 hrs post dose by LC/MS/MS analysis", "format": "ADME, organism-based", "details": "in vivo", "data": [{"smiles": "CCn1ncc2cc(-c3cc(=O)n4ncc(-c5nc(C)no5)c4[nH]3)ccc21", "values": [{"measurement": "half-life", "value": 3.55, "unit": "h"}]}]}
